Results: US11459410B2, “High-purity amphipathic arylsulfonic acid amine salt vinyl monomer and copolymer thereof” (TOSOH FINECHEM CORPORATION, priority 2017, dated 2022)
Where two headings read alike, the source gives them in different places.

Experiments:
[1] = Evaluation 2 (Storage Stability): accelerated test of polymerization stability of the solid at 60° C.; settings: for Comprehensive Evaluation (storage stability): sealed bottle, one week
Procedure: 2.0 g of the solid of styrenesulfonic acid salt was added to glass screw tube bottle, and the bottle was sealed with a plug. Then, the bottle was placed in a box dryer at 60° C., and an accelerated test of polymerization stability was performed.
Sampling was performed every other day for a total of one week to check properties, odor, pH change, and the progress of polymerization by heat.
TOASS was dissolved in dimethylformamide and subjected to GPC analysis using a 10 mmol/L lithium bromide dimethylformamide solution as eluent.

[2] = Evaluation 1 (Solubility): saturation solubility in water, THF, NMP and toluene; format: physicochemical; settings: for Solubility NMP: N-methylpyrrolidone; for Solubility NMP / Solubility THF / Solubility Toluene / Solubility Water: 25° C., saturation solubility; for Solubility THF: tetrahydrofuran
Procedure: 2 g each of water, tetrahydrofuran (THF), N-methylpyrrolidone (NMP), and toluene were added to glass screw tube bottles. Small portions of styrenesulfonic acid salts were added thereto at 25° C., and the solubilities thereof were observed while shaking the bottles by hand. In each case, the point at which the solid started to remain was determined to be saturation solubility, and the solubility was calculated by the following Equation. Solubility (wt %)=A/(S+A)×100
A: Weight of amine added (g)

| Solubility (in words) [2] | Properties on the first day of evaluation ([1]; solid, 60° C., first day) | Solubility in water (in words) [2] | Compound | Monomer (area %), after one week ([1]; GPC, solid, 60° C.) [area %] | Odor, after one week ([1]; solid, 60° C.) | Solubility NMP [2] | Solubility (in words) ([2]; overall, Evaluation 1) | Solubility THF [2] | Solubility Toluene [2] | Solubility Water ([2]; water) | Monomer (area %), before start of reaction ([1]; GPC, before start of the 60° C. test) [area %] | Odor, before start of reaction ([1]; before start of the 60° C. test) | Comprehensive Evaluation (storage stability) ([1]; solid, 60° C.) | Solubility in an organic solvent (in words) ([2]; organic solvent) | Solubility in water (in words) ([2]; water) |
| --- | --- | --- | --- | --- | --- | --- | --- | --- | --- | --- | --- | --- | --- | --- | --- |
| did not have sufficient solubility | – | – | C=Cc1ccc(S(=O)(=O)O)cc1.CCCCCCCCN [MOASS, parastyrenesulfonic acid n-monooctylamine salt, reference compound] | 92.20 | No | – | – | – | – | – | – | – | – | – | – |
| – | – | – | parastyrenesulfonic acid dicyclohexylamine salt [DCHASS, reference compound] | – | – | ∘ (Easily soluble (10 wt % or more)) | did not have sufficient solubility | x (Insoluble (1 wt % or less)) | x (Insoluble (1 wt % or less)) | x (Insoluble (1 wt % or less)) | – | – | – | – | – |
| – | – | – | parastyrenesulfonic acid N,N-dimethylcyclohexylamine salt [CHASS] | 97.24 | No | ∘ (Easily soluble (10 wt % or more)) | – | ∘ (Easily soluble (10 wt % or more)) | Δ (Soluble (1 to 10 wt %)) | ∘ (Easily soluble (10 wt % or more)) | 100 | No | ∘ | sufficient solubility in an organic solvent | soluble in water |
| – | yellow translucent plastic form | poor water solubility | C=Cc1ccc(S(=O)(=O)O)cc1.CCCCCCCCN(CCCCCCCC)CCCCCCCC [TOASS, parastyrenesulfonic acid n-trioctylamine, reference compound] | 0.00 | Yes | – | – | – | – | – | – | – | – | – | – |
| – | – | – | parastyrenesulfonic acid N,N-diisopropylethylamine salt [DIPEASS] | 92.40 | No | ∘ (Easily soluble (10 wt % or more)) | – | Δ (Soluble (1 to 10 wt %)) | Δ (Soluble (1 to 10 wt %)) | ∘ (Easily soluble (10 wt % or more)) | – | – | ∘ | – | – |
